Assay results: ChEMBL document CHEMBL1153524, “2009 Claude S. Hudson Award in Carbohydrate Chemistry. Carbohydrates: a frontier in medicinal chemistry” (2009)

System: Plasmodium berghei
Assay: Antiplasmodial activity as survival against Plasmodium berghei ANKA infected mice (Mus musculus)
Assay type: functional

NCCOP(=O)(O)OC[C@H]1O[C@H](O[C@@H]2[C@@H](OC[C@H]3O[C@H](O[C@H]4[C@H](O)[C@@H](N)[C@@H](O[C@@H]5[C@@H](O)[C@H](O)[C@@H](O)[C@H]6OP(=O)(O)O[C@H]65)O[C@@H]4CO)[C@@H](O)[C@@H](O)[C@@H]3O)O[C@H](CO)[C@@H](O)[C@@H]2O)[C@@H](O[C@H]2O[C@H](CO)[C@@H](O)[C@H](O)[C@@H]2O)[C@@H](O)[C@@H]1O
Survival: 75%
